Patent US12440484B2, “1,3,4-oxadiazole homophthalimide derivative compounds as histone deacetylase 6 inhibitor, and the pharmaceutical composition comprising the same” (Chong Kun Dang Pharmaceutical Corp., priority 2019, dated 2025)

Assays:
[1] = target: HDAC6 human recombinant (Homo sapiens (Human), UniProt Q9UBN7); test: HDAC enzyme activity inhibition (in vitro), HDAC6 assay; format: biochemical; conditions: samples at 0.1, 1, 10, 100 and 1000 nM; 37° C. 60 minutes; fluorescence Ex 390, Em 460
HDAC6 human recombinant, sequence (Q9UBN7 whole entry): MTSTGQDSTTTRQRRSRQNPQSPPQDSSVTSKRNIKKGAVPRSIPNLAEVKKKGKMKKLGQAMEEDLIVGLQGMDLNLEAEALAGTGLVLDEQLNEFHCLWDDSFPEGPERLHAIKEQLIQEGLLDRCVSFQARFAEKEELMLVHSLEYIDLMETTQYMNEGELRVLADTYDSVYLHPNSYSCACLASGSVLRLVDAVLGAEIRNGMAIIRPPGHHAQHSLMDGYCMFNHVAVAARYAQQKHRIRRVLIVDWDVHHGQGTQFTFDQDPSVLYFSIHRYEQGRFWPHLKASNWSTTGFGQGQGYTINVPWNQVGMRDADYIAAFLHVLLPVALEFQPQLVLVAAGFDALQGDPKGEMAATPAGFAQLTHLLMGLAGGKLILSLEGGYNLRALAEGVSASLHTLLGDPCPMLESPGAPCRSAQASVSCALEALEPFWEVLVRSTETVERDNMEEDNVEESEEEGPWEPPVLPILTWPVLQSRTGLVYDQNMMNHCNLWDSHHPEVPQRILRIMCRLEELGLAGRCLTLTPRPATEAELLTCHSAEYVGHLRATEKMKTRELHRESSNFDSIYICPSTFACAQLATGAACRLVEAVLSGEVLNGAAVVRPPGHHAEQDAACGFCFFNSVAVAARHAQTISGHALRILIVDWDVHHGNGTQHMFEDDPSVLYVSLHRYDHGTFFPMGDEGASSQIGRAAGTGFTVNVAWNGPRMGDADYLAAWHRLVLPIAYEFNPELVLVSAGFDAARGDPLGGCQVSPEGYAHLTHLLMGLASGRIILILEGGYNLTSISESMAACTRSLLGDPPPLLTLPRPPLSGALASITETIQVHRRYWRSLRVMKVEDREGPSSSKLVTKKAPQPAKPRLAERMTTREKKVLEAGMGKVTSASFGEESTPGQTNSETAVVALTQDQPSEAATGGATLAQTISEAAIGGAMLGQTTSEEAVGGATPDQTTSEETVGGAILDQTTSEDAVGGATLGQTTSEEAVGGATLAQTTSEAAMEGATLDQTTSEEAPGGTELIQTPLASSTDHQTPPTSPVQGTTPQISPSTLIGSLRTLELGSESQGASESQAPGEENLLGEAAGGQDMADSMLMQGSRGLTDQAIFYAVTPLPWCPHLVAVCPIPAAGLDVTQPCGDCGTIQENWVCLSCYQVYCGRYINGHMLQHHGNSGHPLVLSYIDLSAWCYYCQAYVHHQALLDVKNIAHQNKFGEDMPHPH

[2] = target: HDAC1 (Homo sapiens (Human), UniProt Q13547); test: HDAC enzyme activity inhibition (in vitro), HDAC1 Fluorimetric Drug Discovery Assay Kit; format: biochemical; conditions: samples at 100, 1000 and 10000 nM; 37° C. 60 minutes; fluorescence Ex 390, Em 460
HDAC1, sequence (Q13547 whole entry): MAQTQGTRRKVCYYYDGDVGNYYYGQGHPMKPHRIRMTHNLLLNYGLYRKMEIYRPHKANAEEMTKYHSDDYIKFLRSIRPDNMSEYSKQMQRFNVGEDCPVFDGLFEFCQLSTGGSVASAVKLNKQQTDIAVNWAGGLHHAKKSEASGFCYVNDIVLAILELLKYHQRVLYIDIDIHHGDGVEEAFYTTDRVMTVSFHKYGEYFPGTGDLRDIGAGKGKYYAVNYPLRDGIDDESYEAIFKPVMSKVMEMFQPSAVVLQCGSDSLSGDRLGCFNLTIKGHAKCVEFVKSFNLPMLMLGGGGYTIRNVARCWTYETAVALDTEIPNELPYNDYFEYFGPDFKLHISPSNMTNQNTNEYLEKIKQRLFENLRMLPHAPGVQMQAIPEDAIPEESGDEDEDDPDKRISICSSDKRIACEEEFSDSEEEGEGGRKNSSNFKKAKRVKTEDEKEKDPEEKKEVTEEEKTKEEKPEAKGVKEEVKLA

| SMILES | IC50 [1] [µM] | IC50 [2] [µM] |
| --- | --- | --- |
| Cc1noc(C)c1-c1cccc2c1C(=O)N(Cc1ccc(-c3nnc(C(F)F)o3)cn1)C(=O)C2(C)C [Compound 96, 2-((5-(5-(difluoromethyl)-1,3,4-oxadiazole-2-yl)pyridine-2-yl)methyl)-8-(3,5-dimethylisooxazole-4-yl)-4,4-dimethylisoquinoline-1,3(2H,4H)-dione] | 0.088 | > 10 |
| Cn1c(=O)n(Cc2ccc(-c3nnc(C(F)F)o3)cn2)c(=O)c2ccc(Br)cc21 [Compound 97, 7-bromo-3-((5-(5-(difluoromethyl)-1,3,4-oxadiazole-2-yl)pyridine-2-yl)methyl)-1-methylquinazoline-2,4(1H,3H)-dione] | 0.061 | > 10 |
| Cn1c(=O)n(Cc2ccc(-c3nnc(C(F)F)o3)cn2)c(=O)c2ccc(-c3ccccc3F)cc21 [Compound 99, 3-((5-(5-(difluoromethyl)-1,3,4-oxadiazole-2-yl)pyridine-2-yl)methyl)-7-(2-fluorophenyl)-1-methylquinazoline-2,4(1H,3H)-dione] | 0.149 | > 10 |
| CC1(C)C(=O)N(Cc2ccc(-c3nnc(C(F)F)o3)cn2)C(=O)c2ccc(-c3ccccc3F)cc21 [Compound 103, 2-((5-(5-(difluoromethyl)-1,3,4-oxadiazole-2-yl)pyridine-2-yl)methyl)-6-(2-fluorophenyl)-4,4-dimethylisoquinoline-1,3(2H,4H)-dione] | 0.059 | > 10 |
| O=C1c2ccc(Br)cc2C2(CCC2)C(=O)N1Cc1ccc(-c2nnc(C(F)F)o2)cn1 [Compound 106, 6′-bromo-2′-((5-(5-(difluoromethyl)-1,3,4-oxadiazole-2-yl)pyridine-2-yl)methyl)-1′H-spiro[cyclobutane-1,4′-isoquinoline]-1′,3′(2′H)-dione] | 0.048 | > 10 |
| O=C1c2ccc(Br)cc2C2(CCCCC2)C(=O)N1Cc1ccc(-c2nnc(C(F)F)o2)cn1 [Compound 107, 6′-bromo-2′-((5-(5-(difluoromethyl)-1,3,4-oxadiazole-2-yl)pyridine-2-yl)methyl)-1′H-spiro[cyclohexane-1,4′-isoquinoline]-1′,3′(2′H)-dione] | 0.148 | > 10 |
| CC1(C)C(=O)N(Cc2ccc(-c3nnc(C(F)F)o3)cn2)C(=O)c2cc(-c3cccc(F)c3)ccc21 [Compound 108, 2-((5-(5-(difluoromethyl)-1,3,4-oxadiazole-2-yl)pyridine-2-yl)methyl)-7-(3-fluorophenyl)-4,4-dimethylisoquinoline-1,3(2H,4H)-dione] | 0.211 | > 10 |
| CC1(C)C(=O)N(Cc2ccc(-c3nnc(C(F)F)o3)cn2)C(=O)c2cc(-c3ccccc3F)ccc21 [Compound 109, 2-((5-(5-(difluoromethyl)-1,3,4-oxadiazole-2-yl)pyridine-2-yl)methyl)-7-(2-fluorophenyl)-4,4-dimethylisoquinoline-1,3(2H,4H)-dione] | 0.107 | > 10 |
| CC1(C)C(=O)N(Cc2ccc(-c3nnc(C(F)F)o3)cn2)C(=O)c2cc(-c3ccoc3)ccc21 [Compound 112, 2-((5-(5-(difluoromethyl)-1,3,4-oxadiazole-2-yl)pyridine-2-yl)methyl)-7-(furan-3-yl)-4,4-dimethylisoquinoline-1,3(2H,4H)-dione] | 0.05 | > 10 |
| Cc1ccc(-c2ccc3c(c2)C(=O)N(Cc2ccc(-c4nnc(C(F)F)o4)cn2)C(=O)C3(C)C)o1 [Compound 114, 2-((5-(5-(difluoromethyl)-1,3,4-oxadiazole-2-yl)pyridine-2-yl)methyl)-4,4-dimethyl-7-(5-methylfuran-2-yl)isoquinoline-1,3(2H,4H)-dione] | 0.077 | > 10 |
| CC1(C)C(=O)N(Cc2ccc(-c3nnc(C(F)F)o3)cn2)C(=O)c2cc(-c3cccc4[nH]ccc34)ccc21 [Compound 115, 2-((5-(5-(difluoromethyl)-1,3,4-oxadiazole-2-yl)pyridine-2-yl)methyl)-7-(1H-indole-4-yl)-4,4-dimethylisoquinoline-1,3(2H,4H)-dione] | 0.059 | > 10 |
| CC(C)(C)OC(=O)N1CCN(c2ccc3c(c2)C(=O)N(Cc2ccc(-c4nnc(C(F)F)o4)cn2)C(=O)C3(C)C)CC1 [Compound 116, tert-butyl 4-(2-((5-(5-(difluoromethyl)-1,3,4-oxadiazole-2-yl)pyridine-2-yl)methyl)-4,4-dimethyl-1,3-dioxo-1,2,3,4-tetrahydroisoquinoline-7-yl)piperazine-1-carboxylate] | 0.2 | > 10 |
| Cn1c(=O)n(Cc2ccc(-c3nnc(C(F)F)o3)cn2)c(=O)c2ccc(C3=CCNCC3)cc21 [Compound 122, 3-((5-(5-(difluoromethyl)-1,3,4-oxadiazole-2-yl)pyridine-2-yl)methyl)-1-methyl-7-(1,2,3,6-tetrahydropyridine-4-yl)quinazoline-2,4(1H,3H)-dione] | 0.023 | > 10 |

More lines, now with the values ahead:

| IC50 [1] [µM] | IC50 [2] [µM] | SMILES |
| --- | --- | --- |
| 0.047 | > 10 | Cn1c(=O)n(Cc2ccc(-c3nnc(C(F)F)o3)cn2)c(=O)c2ccc(-c3ccco3)cc21 [Compound 98, 3-((5-(5-(difluoromethyl)-1,3,4-oxadiazole-2-yl)pyridine-2-yl)methyl)-7-(furan-2-yl)-1-methylquinazoline-2,4(1H,3H)-dione] |
| 0.037 | > 10 | Cn1c(=O)n(Cc2ccc(-c3nnc(C(F)F)o3)cn2)c(=O)c2ccc(-c3cccnc3)cc21 [Compound 100, 3-((5-(5-(difluoromethyl)-1,3,4-oxadiazole-2-yl)pyridine-2-yl)methyl)-1-methyl-7-(pyridine-3-yl)quinazoline-2,4(1H,3H)-dione] |
| 0.033 | > 10 | Cn1c(=O)n(Cc2ccc(-c3nnc(C(F)F)o3)cn2)c(=O)c2ccc(-c3ccncc3)cc21 [Compound 101, 3-((5-(5-(difluoromethyl)-1,3,4-oxadiazole-2-yl)pyridine-2-yl)methyl)-1-methyl-7-(pyridine-4-yl)quinazoline-2,4(1H,3H)-dione] |
| 0.03 | > 10 | CC1(C)C(=O)N(Cc2ccc(-c3nnc(C(F)F)o3)cn2)C(=O)c2ccc(-c3ccoc3)cc21 [Compound 102, 2-((5-(5-(difluoromethyl)-1,3,4-oxadiazole-2-yl)pyridine-2-yl)methyl)-6-(furan-3-yl)-4,4-dimethylisoquinoline-1,3(2H,4H)-dione] |
| 0.02 | > 10 | CC1(C)C(=O)N(Cc2ccc(-c3nnc(C(F)F)o3)cn2)C(=O)c2ccc(-c3cccnc3)cc21 [Compound 104, 2-((5-(5-(difluoromethyl)-1,3,4-oxadiazole-2-yl)pyridine-2-yl)methyl)-4,4-dimethyl-6-(pyridine-3-yl)isoquinoline-1,3(2H,4H)-dione] |
| 0.01 | > 10 | CC1(C)C(=O)N(Cc2ccc(-c3nnc(C(F)F)o3)cn2)C(=O)c2ccc(-c3ccncc3)cc21 [Compound 105, 2-((5-(5-(difluoromethyl)-1,3,4-oxadiazole-2-yl)pyridine-2-yl)methyl)-4,4-dimethyl-6-(pyridine-4-yl)isoquinoline-1,3(2H,4H)-dione] |
| 0.015 | > 10 | CC1(C)C(=O)N(Cc2ccc(-c3nnc(C(F)F)o3)cn2)C(=O)c2cc(-c3ccncc3)ccc21 [Compound 110, 2-((5-(5-(difluoromethyl)-1,3,4-oxadiazole-2-yl)pyridine-2-yl)methyl)-4,4-dimethyl-7-(pyridine-4-yl)isoquinoline-1,3(2H,4H)-dione] |
| 0.017 | > 10 | CC1(C)C(=O)N(Cc2ccc(-c3nnc(C(F)F)o3)cn2)C(=O)c2cc(-c3cccnc3)ccc21 [Compound 111, 2-((5-(5-(difluoromethyl)-1,3,4-oxadiazole-2-yl)pyridine-2-yl)methyl)-4,4-dimethyl-7-(pyridine-3-yl)isoquinoline-1,3(2H,4H)-dione] |
| 0.043 | > 10 | CC1(C)C(=O)N(Cc2ccc(-c3nnc(C(F)F)o3)cn2)C(=O)c2cc(-c3ccco3)ccc21 [Compound 113, 2-((5-(5-(difluoromethyl)-1,3,4-oxadiazole-2-yl)pyridine-2-yl)methyl)-7-(furan-2-yl)-4,4-dimethylisoquinoline-1,3(2H,4H)-dione] |
| 0.022 | > 10 | CCN1CCN(c2ccc3c(c2)C2(CCC2)C(=O)N(Cc2ccc(-c4nnc(C(F)F)o4)cn2)C3=O)CC1 [Compound 117, 2′-((5-(5-(difluoromethyl)-1,3,4-oxadiazole-2-yl)pyridine-2-yl)methyl)-6′-(4-ethylpiperazine-1-yl)-1′H-spiro[cyclobutane-1,4′-isoquinoline]-1′,3′(2′H)-dione] |
| 0.022 | > 10 | CN1CCN(c2ccc3c(c2)C(=O)N(Cc2ccc(-c4nnc(C(F)F)o4)cn2)C(=O)C3(C)C)CC1 [Compound 118, 2-((5-(5-(difluoromethyl)-1,3,4-oxadiazole-2-yl)pyridine-2-yl)methyl)-4,4-dimethyl-7-(4-methylpiperazine-1-yl)isoquinoline-1,3(2H,4H)-dione] |
| 0.021 | > 10 | CC(C)N1CCN(c2ccc3c(c2)C(=O)N(Cc2ccc(-c4nnc(C(F)F)o4)cn2)C(=O)C3(C)C)CC1 [Compound 119, 2-((5-(5-(difluoromethyl)-1,3,4-oxadiazole-2-yl)pyridine-2-yl)methyl)-7-(4-isopropylpiperazine-1-yl)-4,4-dimethylisoquinoline-1,3(2H,4H)-dione] |
| 0.036 | > 10 | CC1(C)C(=O)N(Cc2ccc(-c3nnc(C(F)F)o3)cn2)C(=O)c2cc(C3=CCSCC3)ccc21 [Compound 121, 2-((5-(5-(difluoromethyl)-1,3,4-oxadiazole-2-yl)pyridine-2-yl)methyl)-7-(3,6-dihydro-2H-thiopyran-4-yl)-4,4-dimethylisoquinoline-1,3(2H,4H)-dione] |
